PMC3382171 (PLoS ONE, 2012)

How the values were obtained:
Assay in all cases: biochemical
Details in all cases: read-out: Upstate KSS % inhibition at 1uM
WNK2 = WNK2 (Homo sapiens, UniProt Q9Y3S1)
Method: (§1) In these selectivity assays the concentration of ATP was set to the Km value of ATP for each kinase tested to allow for a relative potency comparison between the various kinases. The compounds were tested at 1 µM final concentration. […] (A) Kinase selectivity screen (KSS) performed at Upstate Biotechnology. […] (B) KSS performed at University of Dundee (Division of Signal Transduction Therapy). […] (PDF) Click here for additional data file.

GSK3beta = molecular target: T1, GSK3beta (Homo sapiens, UniProt P49841)
T1 construct: gene GSK3B
Method: as §1

FGFR3 = FGFR3 (Homo sapiens, UniProt P22607)
Method: as §1

BMX = BMX (Homo sapiens, UniProt P51813)
Method: as §1

FYN = FYN (Homo sapiens, UniProt P06241)
Method: as §1

Aurora-A = molecular target: T2, Aurora-A (Homo sapiens, UniProt O14965)
T2 construct: gene AURKA
Method: as §1

PKCdelta = molecular target: T3, PKCdelta (Homo sapiens, UniProt Q05655)
T3 construct: gene PRKCD
Method: as §1

PDGFRbeta = molecular target: T4, PDGFRbeta (Homo sapiens, UniProt P09619)
T4 construct: gene PDGFRB
Method: as §1

JNK2alpha2 = molecular target: T5, JNK2alpha2 (Homo sapiens, UniProt P45984)
T5 construct: gene MAPK9; isoform alpha2
Method: as §1

SAPK2b = molecular target: T6, SAPK2b (Homo sapiens, UniProt Q15759)
T6 construct: gene MAPK11
Method: as §1

Tie2 = molecular target: T7, Tie2 (Homo sapiens, UniProt Q02763)
T7 construct: gene TEK
Method: as §1

ALK = ALK (Homo sapiens, UniProt Q9UM73)
Method: as §1

PKCmu = molecular target: T8, PKCmu (Homo sapiens, UniProt Q15139)
T8 construct: gene PRKD1
Method: as §1

JAK2 = JAK2 (Homo sapiens, UniProt O60674)
Method: as §1

PKD2 = molecular target: T9, PKD2 (Homo sapiens, UniProt Q9BZL6)
T9 construct: gene PRKD2
Method: as §1

PAR-1Balpha = molecular target: T10, PAR-1Balpha (Homo sapiens, UniProt Q7KZI7)
T10 construct: gene MARK2
Method: as §1

EGFR = EGFR (Homo sapiens, UniProt P00533)
Method: as §1

SRPK2 = SRPK2 (Homo sapiens, UniProt P78362)
Method: as §1

PKBgamma = molecular target: T11, PKBgamma (Homo sapiens, UniProt Q9Y243)
T11 construct: gene AKT3
Method: as §1

MELK = MELK (Homo sapiens, UniProt Q14680)
Method: as §1

MLCK = molecular target: T12, MLCK (Homo sapiens, UniProt Q15746)
T12 construct: gene MYLK
Method: as §1

LCK = LCK (Homo sapiens, UniProt P06239)
Method: as §1

IR = molecular target: T13, IR (Homo sapiens, UniProt P06213)
T13 construct: gene INSR
Method: as §1

Arg = molecular target: T14, Arg (Homo sapiens, UniProt P42684)
T14 construct: gene ABL2
Method: as §1

RSK2 = molecular target: T15, RSK2 (Homo sapiens, UniProt P51812)
T15 construct: gene RPS6KA3
Method: as §1

RIPK2 = RIPK2 (Homo sapiens, UniProt O43353)
Method: as §1

Ros = molecular target: T16, Ros (Homo sapiens, UniProt P08922)
T16 construct: gene ROS1
Method: as §1

DYRK2 = molecular target: T17, DYRK2 (Homo sapiens, UniProt Q92630)
T17 sequence (Q92630 1-601): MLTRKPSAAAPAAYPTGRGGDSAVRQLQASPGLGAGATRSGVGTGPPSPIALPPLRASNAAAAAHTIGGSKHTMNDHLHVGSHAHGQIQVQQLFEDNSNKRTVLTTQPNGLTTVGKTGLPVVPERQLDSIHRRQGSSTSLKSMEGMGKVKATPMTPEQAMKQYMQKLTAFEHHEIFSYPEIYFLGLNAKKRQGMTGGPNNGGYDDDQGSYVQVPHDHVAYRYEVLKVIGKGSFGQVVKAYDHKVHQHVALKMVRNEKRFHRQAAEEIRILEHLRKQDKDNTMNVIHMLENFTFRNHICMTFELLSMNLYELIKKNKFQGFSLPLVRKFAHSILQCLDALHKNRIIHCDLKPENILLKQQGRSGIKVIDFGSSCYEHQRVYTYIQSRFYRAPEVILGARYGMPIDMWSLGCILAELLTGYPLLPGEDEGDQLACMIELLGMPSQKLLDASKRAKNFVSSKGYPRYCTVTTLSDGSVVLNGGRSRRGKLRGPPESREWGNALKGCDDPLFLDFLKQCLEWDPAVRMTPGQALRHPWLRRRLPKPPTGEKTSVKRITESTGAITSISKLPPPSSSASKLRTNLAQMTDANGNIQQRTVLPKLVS
Method: as §1

T5 sequence (P45984 whole entry, canonical isoform): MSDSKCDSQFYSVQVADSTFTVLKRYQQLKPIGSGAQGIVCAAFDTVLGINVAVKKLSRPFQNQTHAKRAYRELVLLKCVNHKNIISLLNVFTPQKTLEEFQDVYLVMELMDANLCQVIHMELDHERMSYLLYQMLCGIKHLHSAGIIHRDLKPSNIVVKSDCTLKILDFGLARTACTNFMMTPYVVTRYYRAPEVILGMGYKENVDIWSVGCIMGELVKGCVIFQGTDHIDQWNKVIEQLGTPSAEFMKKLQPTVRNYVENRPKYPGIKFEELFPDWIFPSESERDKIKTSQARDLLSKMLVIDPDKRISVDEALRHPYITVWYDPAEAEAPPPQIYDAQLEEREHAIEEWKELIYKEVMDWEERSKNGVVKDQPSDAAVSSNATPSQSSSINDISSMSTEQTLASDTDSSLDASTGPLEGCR
T7 sequence (Q02763 whole entry): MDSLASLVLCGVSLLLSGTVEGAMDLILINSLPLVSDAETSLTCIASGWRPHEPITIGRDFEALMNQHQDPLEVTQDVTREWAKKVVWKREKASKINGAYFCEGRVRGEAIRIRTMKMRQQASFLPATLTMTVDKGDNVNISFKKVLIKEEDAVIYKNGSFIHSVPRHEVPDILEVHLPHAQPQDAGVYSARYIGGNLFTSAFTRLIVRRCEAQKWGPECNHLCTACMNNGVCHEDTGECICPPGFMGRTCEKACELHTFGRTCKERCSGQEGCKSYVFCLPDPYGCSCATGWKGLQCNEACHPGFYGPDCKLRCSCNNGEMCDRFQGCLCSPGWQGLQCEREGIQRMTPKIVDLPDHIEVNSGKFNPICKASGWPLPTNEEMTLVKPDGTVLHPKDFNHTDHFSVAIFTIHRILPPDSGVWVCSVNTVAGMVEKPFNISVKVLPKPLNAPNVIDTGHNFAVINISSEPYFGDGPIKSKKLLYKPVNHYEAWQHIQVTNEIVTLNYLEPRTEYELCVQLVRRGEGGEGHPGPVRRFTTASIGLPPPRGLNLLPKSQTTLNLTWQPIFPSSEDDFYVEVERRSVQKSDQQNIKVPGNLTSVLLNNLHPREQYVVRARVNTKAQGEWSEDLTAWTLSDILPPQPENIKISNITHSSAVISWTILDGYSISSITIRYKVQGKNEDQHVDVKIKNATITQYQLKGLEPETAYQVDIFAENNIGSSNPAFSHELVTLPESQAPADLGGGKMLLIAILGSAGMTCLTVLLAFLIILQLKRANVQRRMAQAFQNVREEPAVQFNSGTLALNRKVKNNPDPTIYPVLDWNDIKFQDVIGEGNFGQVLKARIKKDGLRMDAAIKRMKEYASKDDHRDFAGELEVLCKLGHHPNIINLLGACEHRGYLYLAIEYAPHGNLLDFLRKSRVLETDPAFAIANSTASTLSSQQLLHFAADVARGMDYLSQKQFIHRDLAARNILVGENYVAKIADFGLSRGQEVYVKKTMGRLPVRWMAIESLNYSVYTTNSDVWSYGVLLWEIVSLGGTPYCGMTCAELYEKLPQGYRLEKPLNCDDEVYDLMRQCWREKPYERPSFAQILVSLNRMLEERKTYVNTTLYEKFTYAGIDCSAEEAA
T6 sequence (Q15759 whole entry): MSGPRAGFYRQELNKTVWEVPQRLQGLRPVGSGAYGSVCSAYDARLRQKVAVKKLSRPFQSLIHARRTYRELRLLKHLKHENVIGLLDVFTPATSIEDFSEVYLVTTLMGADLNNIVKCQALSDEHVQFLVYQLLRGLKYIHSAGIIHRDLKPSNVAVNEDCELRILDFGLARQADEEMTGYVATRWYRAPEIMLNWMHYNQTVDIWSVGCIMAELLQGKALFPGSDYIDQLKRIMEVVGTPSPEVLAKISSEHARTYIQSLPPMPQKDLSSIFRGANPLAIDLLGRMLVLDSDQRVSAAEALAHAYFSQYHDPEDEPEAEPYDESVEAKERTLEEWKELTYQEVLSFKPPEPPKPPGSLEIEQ
T14 sequence (P42684 whole entry): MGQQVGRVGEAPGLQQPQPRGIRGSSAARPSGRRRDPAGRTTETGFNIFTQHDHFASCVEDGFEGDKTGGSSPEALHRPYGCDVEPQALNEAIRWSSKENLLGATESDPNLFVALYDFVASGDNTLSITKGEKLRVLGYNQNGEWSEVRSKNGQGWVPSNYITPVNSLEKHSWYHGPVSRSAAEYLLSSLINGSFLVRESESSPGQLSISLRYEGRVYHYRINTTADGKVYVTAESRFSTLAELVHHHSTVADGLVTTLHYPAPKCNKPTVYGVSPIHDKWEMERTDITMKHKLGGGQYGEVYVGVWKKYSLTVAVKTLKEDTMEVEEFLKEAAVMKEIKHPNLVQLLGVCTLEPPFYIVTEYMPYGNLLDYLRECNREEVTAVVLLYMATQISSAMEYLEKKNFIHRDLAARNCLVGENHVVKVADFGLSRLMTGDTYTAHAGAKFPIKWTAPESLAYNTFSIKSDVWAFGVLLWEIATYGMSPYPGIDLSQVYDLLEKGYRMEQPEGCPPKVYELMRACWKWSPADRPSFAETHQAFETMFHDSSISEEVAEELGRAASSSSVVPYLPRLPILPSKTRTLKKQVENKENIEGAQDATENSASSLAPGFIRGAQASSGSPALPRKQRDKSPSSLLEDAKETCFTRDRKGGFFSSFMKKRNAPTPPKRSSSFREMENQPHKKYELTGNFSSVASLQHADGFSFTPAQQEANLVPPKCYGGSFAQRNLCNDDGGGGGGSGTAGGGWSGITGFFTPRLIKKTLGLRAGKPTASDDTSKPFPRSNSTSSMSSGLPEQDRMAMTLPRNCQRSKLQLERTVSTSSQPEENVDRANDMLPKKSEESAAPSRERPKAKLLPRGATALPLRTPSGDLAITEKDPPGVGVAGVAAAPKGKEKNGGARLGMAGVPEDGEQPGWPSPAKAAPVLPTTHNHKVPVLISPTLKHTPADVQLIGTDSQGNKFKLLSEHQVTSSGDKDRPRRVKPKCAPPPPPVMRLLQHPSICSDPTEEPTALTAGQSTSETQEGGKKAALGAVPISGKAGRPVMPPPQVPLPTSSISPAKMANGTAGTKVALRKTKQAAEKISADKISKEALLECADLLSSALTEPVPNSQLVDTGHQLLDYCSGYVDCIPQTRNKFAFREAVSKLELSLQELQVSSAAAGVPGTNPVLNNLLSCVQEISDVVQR
Sequence of SRPK2 (P78362 whole entry): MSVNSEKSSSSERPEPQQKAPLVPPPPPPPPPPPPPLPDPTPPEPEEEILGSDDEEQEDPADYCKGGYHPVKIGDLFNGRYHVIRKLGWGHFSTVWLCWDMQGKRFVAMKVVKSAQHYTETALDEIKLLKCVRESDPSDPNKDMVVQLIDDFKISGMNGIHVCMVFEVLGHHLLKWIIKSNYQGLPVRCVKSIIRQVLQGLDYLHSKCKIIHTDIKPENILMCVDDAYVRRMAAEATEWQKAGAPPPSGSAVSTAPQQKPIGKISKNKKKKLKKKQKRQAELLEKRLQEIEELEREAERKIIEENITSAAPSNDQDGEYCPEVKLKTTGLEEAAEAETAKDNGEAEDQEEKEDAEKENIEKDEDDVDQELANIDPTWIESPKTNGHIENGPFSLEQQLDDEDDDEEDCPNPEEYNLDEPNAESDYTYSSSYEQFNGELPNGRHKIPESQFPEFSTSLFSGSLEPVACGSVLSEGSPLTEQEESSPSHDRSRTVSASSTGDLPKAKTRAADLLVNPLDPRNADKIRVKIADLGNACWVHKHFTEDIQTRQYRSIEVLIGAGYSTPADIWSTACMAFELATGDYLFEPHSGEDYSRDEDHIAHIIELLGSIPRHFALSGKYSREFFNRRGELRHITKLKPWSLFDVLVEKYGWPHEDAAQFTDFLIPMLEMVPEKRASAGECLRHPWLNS
Sequence of EGFR (P00533 whole entry): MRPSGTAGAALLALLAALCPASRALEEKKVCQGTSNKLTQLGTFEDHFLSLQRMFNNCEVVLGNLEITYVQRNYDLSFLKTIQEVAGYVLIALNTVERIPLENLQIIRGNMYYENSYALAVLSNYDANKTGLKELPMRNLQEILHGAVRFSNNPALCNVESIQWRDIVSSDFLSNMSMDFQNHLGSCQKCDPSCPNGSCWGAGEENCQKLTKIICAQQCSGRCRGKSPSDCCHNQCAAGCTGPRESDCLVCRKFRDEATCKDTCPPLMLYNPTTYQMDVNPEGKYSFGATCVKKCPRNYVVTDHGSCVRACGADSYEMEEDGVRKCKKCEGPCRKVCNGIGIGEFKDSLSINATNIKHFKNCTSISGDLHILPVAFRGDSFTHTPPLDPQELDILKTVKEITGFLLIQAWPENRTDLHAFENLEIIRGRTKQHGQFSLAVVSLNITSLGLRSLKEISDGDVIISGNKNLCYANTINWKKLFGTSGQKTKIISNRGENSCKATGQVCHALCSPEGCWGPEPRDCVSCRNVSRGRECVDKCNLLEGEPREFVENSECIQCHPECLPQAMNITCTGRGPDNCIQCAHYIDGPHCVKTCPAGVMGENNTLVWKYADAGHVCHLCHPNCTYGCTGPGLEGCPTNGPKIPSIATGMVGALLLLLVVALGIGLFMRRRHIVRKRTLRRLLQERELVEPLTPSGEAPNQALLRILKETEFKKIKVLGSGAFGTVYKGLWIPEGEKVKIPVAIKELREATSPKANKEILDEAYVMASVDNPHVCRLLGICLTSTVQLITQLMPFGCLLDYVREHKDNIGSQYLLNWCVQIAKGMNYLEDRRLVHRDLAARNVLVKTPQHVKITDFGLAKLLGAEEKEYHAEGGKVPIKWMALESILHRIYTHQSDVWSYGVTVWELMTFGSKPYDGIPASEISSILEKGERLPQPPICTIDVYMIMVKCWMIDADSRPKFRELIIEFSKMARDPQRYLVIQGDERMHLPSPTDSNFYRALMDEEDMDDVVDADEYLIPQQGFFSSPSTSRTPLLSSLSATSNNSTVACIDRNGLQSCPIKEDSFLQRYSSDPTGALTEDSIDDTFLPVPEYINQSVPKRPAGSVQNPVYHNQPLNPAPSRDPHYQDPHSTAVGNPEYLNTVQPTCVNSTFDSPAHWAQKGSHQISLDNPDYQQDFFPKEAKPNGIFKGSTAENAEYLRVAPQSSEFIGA

inhibition at 1 µM (WNK2): -16%
inhibition at 1 µM (GSK3beta): -1%
inhibition at 1 µM (FGFR3): -1%
inhibition at 1 µM (BMX): -10%
inhibition at 1 µM (FYN): -20%
inhibition at 1 µM (Aurora-A): -7%
inhibition at 1 µM (PKCdelta): 10%
inhibition at 1 µM (PDGFRbeta): -27%
inhibition at 1 µM (JNK2alpha2): -2%
inhibition at 1 µM (SAPK2b): 1%
inhibition at 1 µM (Tie2): -32%
inhibition at 1 µM (ALK): 54%
inhibition at 1 µM (PKCmu): 5%
inhibition at 1 µM (JAK2): -6%
inhibition at 1 µM (PKD2): 5%
inhibition at 1 µM (PAR-1Balpha): 17%
inhibition at 1 µM (EGFR): 0%
inhibition at 1 µM (SRPK2): -2%
inhibition at 1 µM (PKBgamma): 5%
inhibition at 1 µM (MELK): 2%
inhibition at 1 µM (MLCK): -32%
inhibition at 1 µM (LCK): -8%
inhibition at 1 µM (IR): 8%
inhibition at 1 µM (Arg): 10%
inhibition at 1 µM (RSK2): -22%
inhibition at 1 µM (RIPK2): 3%
inhibition at 1 µM (Ros): 0%
inhibition at 1 µM (DYRK2): -1%
Structure (SMILES): OCCn1cc(-c2cnc3nnn(Cc4ccc5ncccc5c4)c3n2)cn1 [METi, PF-04217903]
